Results on 27 compounds are retold here after patent US7652055B2, “2-imidazolines” (Hoffman-La Roche Inc., priority 2007, dated 2010).

T1 sequence (Q923Y8 whole entry): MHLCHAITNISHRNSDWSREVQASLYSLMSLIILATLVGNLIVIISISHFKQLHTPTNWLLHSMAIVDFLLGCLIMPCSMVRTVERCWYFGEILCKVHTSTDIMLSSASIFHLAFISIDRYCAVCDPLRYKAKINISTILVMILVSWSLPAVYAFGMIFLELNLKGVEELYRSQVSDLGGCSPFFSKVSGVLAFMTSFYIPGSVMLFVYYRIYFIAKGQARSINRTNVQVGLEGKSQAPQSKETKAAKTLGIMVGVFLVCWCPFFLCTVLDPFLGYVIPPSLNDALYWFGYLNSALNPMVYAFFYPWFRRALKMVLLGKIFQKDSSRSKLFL

One assay addresses T1, TAAR1 (Mus musculus, UniProt Q923Y8).
T1 construct: expressed in transfected cells; host or cells: HEK293 (ATCC # CRL-1573), stably transfected with pIRESneo2 expression plasmid; membranes prepared
As to the kind of experiment: Radioligand binding assay on membranes of HEK293 cells stably expressing TAAR1. As to conditions: mouse TAAR1; radioligand [3H]-rac-2-(1,2,3,4-tetrahydro-1-naphthyl)-2-imidazoline at 60 nM; 4° C., 30 min. Here is the method:
Construction of TAAR Expression Plasmids and Stably Transfected Cell Lines
For the construction of expression plasmids the coding sequences of human, rat and mouse TAAR 1 were amplified from genomic DNA essentially as described by Lindemann et al.. The Expand High Fidelity PCR System (Roche Diagnostics) was used with 1.5 mM Mg^2+ and purified PCR products were cloned into pCR2.1-TOPO cloning vector (Invitrogen) following the instructions of the manufacturer. PCR products were subcloned into the pIRESneo2 vector (BD Clontech, Palo Alto, Calif.), and expression vectors were sequence verified before introduction in cell lines.
HEK293 cells (ATCC # CRL-1573) were cultured essentially as described Lindemann et al. (2005). For the generation of stably transfected cell lines HEK293 cells were transfected with the pIRESneo2 expression plasmids containing the TAAR coding sequences (described above) with Lipofectamine 2000 (Invitrogen) according to the instructions of the manufacturer, and 24 hrs post transfection the culture medium was supplemented with 1 mg/ml G418 (Sigma, Buchs, Switzerland). After a culture period of about 10 d clones were isolated, expanded and tested for responsiveness to trace amines (all compounds purchased from Sigma) with the cAMP Biotrak Enzyme immunoassay (EIA) System (Amersham) following the non-acetylation EIA procedure provided by the manufacturer.
Membrane Preparation and Radioligand Binding
Cells at confluence were rinsed with ice-cold phosphate buffered saline without Ca^2+ and Mg^2+ containing 10 mM EDTA and pelleted by centrifugation at 1000 rpm for 5 min at 4° C. The pellet was then washed twice with ice-cold phosphate buffered saline and cell pellet was frozen immediately by immersion in liquid nitrogen and stored until use at −80° C. Cell pellet was then suspended in 20 ml HEPES-NaOH (20 mM), pH 7.4 containing 10 mM EDTA, and homogenized with a Polytron (PT 3000, Kinematica) at 10,000 rpm for 10 s. The homogenate was centrifuged at 48,000×g for 30 min at 4° C. and the pellet resuspended in 20 ml HEPES-NaOH (20 mM), pH 7.4 containing 0.1 mM EDTA (buffer A), and homogenized with a Polytron at 10,000 rpm for 10 s. The homogenate was then centrifuged at 48,000×g for 30 min at 4° C. and the pellet resuspended in 20 ml buffer A, and homogenized with a Polytron at 10,000 rpm for 10 s. Protein concentration was determined by the method of Pierce (Rockford, Ill.). The homogenate was then centrifuged at 48,000×g for 10 min at 4° C., resuspended in HEPES-NaOH (20 mM), pH 7.0 including MgCl2 (10 mM) and […] homogenized with a Polytron at 10,000 rpm for 10 s.
Binding assay was performed at 4° C. in a final volume of 1 ml, and with an incubation time of 30 min. The radioligand [^3H]-rac-2-(1,2,3,4-tetrahydro-1-naphthyl)-2-imidazoline was used at a concentration equal to the calculated Kd value of 60 nM to give a bound at around 0.1% of the total added radioligand concentration, and a specific binding which represented approximately 70-80% of the total binding. Non-specific binding was defined as the amount of [^3H]-rac-2-(1,2,3,4-tetrahydro-1-naphthyl)-2-imidazoline bound in the presence of the appropriate unlabelled ligand (10 μM). Competing ligands were tested in a wide range of concentrations (10 pM-30 μM). […] Each experiment was performed in duplicate. All incubations were terminated by rapid filtration through UniFilter-96 plates (Packard Instrument Company) and glass filter GF/C, pre-soaked for at least 2 h in polyethylenimine 0.3%, and using a Filtermate 96 Cell Harvester (Packard Instrument Company). The tubes and filters were then washed 3 times with 1 ml aliquots of cold buffer B. Filters were not dried and soaked in Ultima gold (45 μl/well, Packard Instrument Company) and bound radioactivity was counted by a TopCount Microplate Scintillation Counter (Packard Instrument Company).
Consider `Clc1cccc(NCC2=NCCN2)c1` [Example K2, (3-Chloro-phenyl)-(4,5-dihydro-1H-imidazol-2-ylmethyl)-amine], for which the Ki worked out at 0.007 µM. As to `Cc1c(Cl)cccc1NNC1=NCCN1` [Example K25, N-(3-Chloro-2-methyl-phenyl)-N′-(4,5-dihydro-1H-imidazol-2-yl)-hydrazine], the affinity corresponds to a Ki of 0.0057 µM. `c1ccc(C2CC2)c(OCC2=NCCN2)c1` [Example K20, 2-(2-Cyclopropyl-phenoxymethyl)-4,5-dihydro-1H-imidazole] displayed a Ki of 0.0325 µM.

`Clc1cc(NCC2=NCCN2)ccc1Br` [Example 1, (4-Bromo-3-chloro-phenyl)-(4,5-dihydro-1H-imidazol-2-ylmethyl)-amine] came in with a Ki of 0.0022 µM. `Fc1cc(NCC2=NCCN2)ccc1Cl` [Example 2, (4-Chloro-3-fluoro-phenyl)-(4,5-dihydro-1H-imidazol-2-ylmethyl)-amine] came in with a Ki of 0.0011 µM.

As to `Clc1cccc(OCC2=NCCN2)c1Cl` [Example K12, 2-(2,3-Dichloro-phenoxymethyl)-4,5-dihydro-1H-imidazole], the Ki was 0.0063 µM.

`c1ccc(Cc2cccc(OCC3=NCCN3)c2)cc1` [Example 14, 2-(3-Benzyl-phenoxymethyl)-4,5-dihydro-1H-imidazole] came in with a Ki of 0.0054 µM. On the same count and under the same terms, the figure for `CC(C)Oc1ccc(C(=O)CCc2ccc(OC(C)C3=NCCN3)cc2)cc1` (stereo not drawn) [Example 12, 3-{4-[1-(4,5-Dihydro-1H-imidazol-2-yl)-ethoxy]-phenyl}-1-(4-isopropoxy-phenyl)-propan-1-one] is 0.0158 µM; for `Clc1ccc(OCC2=NCCN2)cc1Cl` [Example 27, 2-(3,4-Dichloro-phenoxymethyl)-4,5-dihydro-1H-imidazole] it is 0.0329 µM.

Compound `c1cc2ccc(OCC3=NCCN3)cc2o1` [Example 17, 2-(Benzofuran-6-yloxymethyl)-4,5-dihydro-1H-imidazole] showed a Ki of 0.0372 µM.

`Fc1cccc(OCC2=NCCN2)c1F` [Example 21, 2-(2,3-Difluoro-phenoxymethyl)-4,5-dihydro-1H-imidazole] displayed a Ki of 0.0341 µM. Still for that read-out and setting: with `Cc1ccc(NNC2=NCCN2)cc1C` [Example 35, N-(4,5-Dihydro-1H-imidazol-2-yl)-N′-(3,4-dimethyl-phenyl)-hydrazine] the figure was 0.044 µM; with `Clc1ccc(NCC2=NCCN2)cc1` [Example K1, (4-Chloro-phenyl)-(4,5-dihydro-1H-imidazol-2-ylmethyl)-amine], 0.023 µM; with `CC(C)Oc1ccc(OCc2ccc(OCC3=NCCN3)cc2)cc1` [Example 13, 2-[4-(4-Isopropoxy-phenoxymethyl)-phenoxymethyl]-4,5-dihydro-1H-imidazole], 0.025 µM.

Consider `COc1ccc(Cc2ccc(NCC3=NCCN3)cc2)cc1` [Example 8, (4,5-Dihydro-1H-imidazol-2-ylmethyl)-[4-(4-methoxy-benzyl)-phenyl]-amine], for which the Ki worked out at 0.0443 µM. The same measure, in the same setting: with `FC(F)(F)c1cccc(OCC2=NCCN2)c1` [Example K17, 2-(3-Trifluoromethyl-phenoxymethyl)-4,5-dihydro-1H-imidazole] the figure was 0.0913 µM; with `c1ccc(CCCc2ccc(OCC3=NCCN3)cc2)cc1` [Example 15, 2-[4-(3-Phenyl-propyl)-phenoxymethyl]-4,5-dihydro-1H-imidazole], 0.0441 µM. Same read-out and setting: with `CN(CC1=NCCN1)c1ccc(Cl)c(Cl)c1` [Example 4, (3,4-Dichloro-phenyl)-(4,5-dihydro-1H-imidazol-2-ylmethyl)-methyl-amine] the figure was 0.0059 µM. Take `Cc1c(NCC2=NCCN2)ccc2occc12` [Example 7, (4,5-Dihydro-1H-imidazol-2-ylmethyl)-(4-methyl-benzofuran-5-yl)-amine]: the inhibition constant (Ki) came out at 0.0028 µM. On the same count and under the same terms, with `FC(F)(F)c1cccc(OCC2=NCCN2)c1Cl` [Example 20, 2-(2-Chloro-3-trifluoromethyl-phenoxymethyl)-4,5-dihydro-1H-imidazole] the figure was 0.0016 µM; with `COc1ccccc1N(C)CC1=NCCN1` [Example 9, (4,5-Dihydro-1H-imidazol-2-ylmethyl)-(2-methoxy-phenyl)-methyl-amine], 0.0432 µM; with `CN(CC1=NCCN1)c1cccc(Cl)c1` [Example 3, (3-Chloro-phenyl)-(4,5-dihydro-1H-imidazol-2-ylmethyl)-methyl-amine], 0.0084 µM. In turn, `Cc1c(O)ccc(OCC2=NCCN2)c1C` [Example 24, 4-(4,5-Dihydro-1H-imidazol-2-ylmethoxy)-2,3-dimethyl-phenol] displayed an inhibition constant Ki of 0.093 µM.

As to `Clc1ccccc1OCC1=NCCN1` [Example K10, 2-(2-Chloro-phenoxymethyl)-4,5-dihydro-1H-imidazole], the Ki stood at 0.064 µM. Same read-out and setting: with `CC(Oc1c(Cl)cccc1Cl)C1=NCCN1` (stereo not drawn) [Example K21, 2-[1-(2,6-Dichloro-phenoxy)-ethyl]-4,5-dihydro-1H-imidazole] the figure was 0.0262 µM; with `Clc1cccc(SCC2=NCCN2)c1Cl` [Example 31, 2-(2,3-Dichloro-phenylsulfanylmethyl)-4,5-dihydro-1H-imidazole], 0.0075 µM.

The same assay, now with this note: radioligand of the binding assay; TAAR1 species not stated at this place; read-out: calculated Kd value of the radioligand.
Turning to `c1ccc2c(c1)CCCC2C1=NCCN1` (racemic) [[^3H]-rac-2-(1,2,3,4-tetrahydro-1-naphthyl)-2-imidazoline, reference compound], the Kd was 60 nM.
